In patent US4409232A, “Substituted oxadiazoles, method for the production thereof, compositions containing them and method of use thereof” (priority 1980, dated 1983):
“Also recorded” adds a separate entry of the source.

Legend:
[1] = molecular target: T1, beta-adrenoceptor (trachea) (Cavia porcellus, UniProt Q8K4Z4); assay: pA2 as beta-adrenoceptor blocker on isolated guinea pig trachea; format: cell-based
T1 construct: As test tissue are used the atrium and trachea of guinea pigs; from tissue; host or cells: isolated guinea pig trachea
T1 sequence (Q8K4Z4 whole entry): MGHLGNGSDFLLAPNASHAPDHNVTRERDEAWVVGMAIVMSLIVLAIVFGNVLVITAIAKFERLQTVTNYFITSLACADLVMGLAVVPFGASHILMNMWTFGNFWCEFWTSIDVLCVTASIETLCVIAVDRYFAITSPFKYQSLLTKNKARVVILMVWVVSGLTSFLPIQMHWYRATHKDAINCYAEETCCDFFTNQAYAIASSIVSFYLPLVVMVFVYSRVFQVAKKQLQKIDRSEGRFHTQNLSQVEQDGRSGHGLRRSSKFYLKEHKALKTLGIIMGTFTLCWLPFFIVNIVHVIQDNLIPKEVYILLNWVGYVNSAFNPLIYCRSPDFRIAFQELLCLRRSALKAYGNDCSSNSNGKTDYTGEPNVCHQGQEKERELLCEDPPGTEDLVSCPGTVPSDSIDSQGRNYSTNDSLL
Source text: (§1) The terms used in Table 1 are defined as follows (from B. J. Clark: "Pharmacology of beta-adrenoceptor blocking agents" in "beta-Adrenoceptor blocking agents", P. R. Saxena and R. P. Forsyth edition. pA2 The strength of a beta-adrenoceptor blocker. Corresponds to the negative logarithm of the molar concentration of an antagonist which requires a doubling of the molar concentration of the agonist to achieve a given effect on isolated tissue. As test tissue are used the atrium and trachea of guinea pigs.

beta-adrenolytic action = assay: Half-life of the beta-adrenolytic action in rabbits after i.v. application; format: in vivo, rabbit; settings: for t1/2 of beta-adrenolytic action: rabbits, i.v., time at which action has decreased to one half
Source text: […] : Time at which the beta-adrenolytic action of a substance in rabbits after i.v. application has decreased to one half.

[2] = test system: beta-agonistic action (heart frequency); assay: Intrinsic sympathomimetic activity (ISA): increase of heart frequency in reserpinized rats relative to isoprenaline; format: in vivo, rat; settings: for ISA % isoprenaline action: increase of heart frequency, reserpinized rats, isoprenaline maximum = 100%
Method: ISA: "Intrinsic sympathomimetic activity" (betaa -agonistic action). The percent increase of the heart frequency which is induced by a substance, referred to the maximum reaction of isoprenaline (100%). The measurements are carried out on reserpinolized rats which no longer show a sympathic tonus.

[3] = test system: β1 receptors of the heart versus β2 receptors (atrium / trachea); assay: Cardioselectivity: antilog pA2 (atrium)-pA2 (trachea); format: cell-based, guinea pig; settings: for Cardioselectivity antilog pA2 (A)-pA2 (T): antilog of pA2 (atrium) - pA2 (trachea), guinea pig; for cardioselectivity (in words): qualitative statement
Source text: Most commercial β-adrenolytics of similar structure influence both β1 and β2 receptors; that is, they inhibit the effect of the sympathetic nervous system on the heart as well as on the peripheral blood vessels or the bronchial muscles. Blocking of the β2 receptors leads to an increase in tonus of the smooth muscle with broncho spasms and increased resistance of the peripheral vessels. […] This is because β2 receptor-blocking substances are not to be administered in bronchial diseases (such as asthma) because of their broncho-constrictive action. However, treatment of […].
pA2 The strength of a beta-adrenoceptor blocker. Corresponds to the negative logarithm of the molar concentration of an antagonist which requires a doubling of the molar concentration of the agonist to achieve a given effect on isolated tissue. As test tissue are used the atrium and trachea of guinea pigs.
Cardioselectivity: antilog pA2 (atrium)-pA2 (trachea)

[4] = molecular target: T2, beta-adrenoceptor (atrium) (Cavia porcellus, UniProt H0W3H1); assay: pA2 as beta-adrenoceptor blocker on isolated guinea pig atrium; format: cell-based
T2 construct: As test tissue are used the atrium and trachea of guinea pigs; from tissue; host or cells: isolated guinea pig atrium
T2 sequence (H0W3H1 1-470): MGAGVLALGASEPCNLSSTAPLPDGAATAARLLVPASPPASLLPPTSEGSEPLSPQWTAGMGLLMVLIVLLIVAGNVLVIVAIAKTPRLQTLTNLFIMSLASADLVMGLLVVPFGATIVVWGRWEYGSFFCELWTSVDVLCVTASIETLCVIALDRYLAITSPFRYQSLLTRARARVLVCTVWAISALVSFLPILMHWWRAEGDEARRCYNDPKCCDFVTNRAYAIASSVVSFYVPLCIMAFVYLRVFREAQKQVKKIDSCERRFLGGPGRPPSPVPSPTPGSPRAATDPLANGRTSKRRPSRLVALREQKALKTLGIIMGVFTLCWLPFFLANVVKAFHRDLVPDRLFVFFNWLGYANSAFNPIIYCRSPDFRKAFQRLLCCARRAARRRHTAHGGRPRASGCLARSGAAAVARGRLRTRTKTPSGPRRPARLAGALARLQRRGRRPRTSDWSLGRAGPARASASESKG
Source text: as §1

Row | Kb [1] | Local anesth. action (Local anesthetic action) | Kb [4] | agonistic / isoprenaline action (in words) ([2]; qualitative statement) | cardioselectivity (in words) [3] | Compound | t1/2 of beta-adrenolytic action (beta-adrenolytic action) | ISA % isoprenaline action [2] | Cardioselectivity antilog pA2 (A)-pA2 (T) [3] | cardioselectivity (in words) ([3]; listed as (c)) | half-life (in words) (beta-adrenolytic action; qualitative statement)
1 | 158 nM | 0 | 50.1 nM | high isoprenaline action |  | CC(C)(C)NCC(O)COc1ccccc1-c1nnco1 (centres unmarked) [Comparison Substance 2, 2-[2-(2-hydroxy-3-tert.butylamino-propoxy)-phenyl]-1,3,4-oxadiazole, reference compound] |  | 79% | 3 |  | 
2 | 4170 nM | 0 | 209 nM |  | preferred for their selectivity | CC(=O)Nc1ccc(OCC(O)CNC(C)(C)C)c(-c2nnco2)c1 (centres unmarked) [Example 1, 2-[2-(2-hydroxy-3-tert.-butylamino-propoxy)-5-acetamido-phenyl]-1,3,4 oxadiazole] | 5 h | 0% | 17 |  | 
3 | 1260 nM | 0 | 50.1 nM |  |  | CCCCCCC(=O)Nc1ccc(OCC(O)CNC(C)(C)C)c(-c2nnco2)c1 (centres unmarked) [Example 2, 2-[2-(2-hydroxy-3-tert.-butylamino-propoxy)-5-n-heptanoylaminophenyl]-1,3,4oxadiazole] | 3.5 h | 0% | 25 | preferred for their selectivity; also recorded: highly selectively active | particularly long half-life
4 | 1260 nM | 0 | 39.8 nM |  | preferred for their selectivity | CCCCCCCC(=O)Nc1ccc(OCC(O)CNC(C)(C)C)c(-c2nnco2)c1 (centres unmarked) [Example 4, 2-[2-(2-hydroxy-3-tert.-butylamino-propoxy)-5-n-octanoylaminophenyl]-1,3,4 oxadiazole] |  | 0% | 32 |  | 
5 |  |  |  |  | preferred for their selectivity | CCCCCCCCC(=O)Nc1ccc(OCC(O)CNC(C)(C)C)c(-c2nnco2)c1 (centres unmarked) [Example 5, 2-[2-(2-hydroxy-3-tert.-butylamino-propoxy)-5-n-nonanoylaminophenyl]-1,3,4 oxadiazole] |  |  |  |  | 
6 | 1580 nM | 0 | 79.4 nM |  | preferred for their selectivity | CCCCCCCCCC(=O)Nc1ccc(OCC(O)CNC(C)(C)C)c(-c2nnco2)c1 (centres unmarked) [Example 6, 2-[2-(2-hydroxy-3-tert.-butylamino-propoxy)-5-n-decanoylamino-phenyl]-1,3,4oxadiazole] |  | 0% | 20 |  | 

Row | Compound | Kb [1] | Local anesth. action (Local anesthetic action) | Kb [4] | agonistic / isoprenaline action (in words) ([2]; qualitative statement) | cardioselectivity (in words) [3] | t1/2 of beta-adrenolytic action (beta-adrenolytic action) | ISA % isoprenaline action [2] | Cardioselectivity antilog pA2 (A)-pA2 (T) [3] | cardioselectivity (in words) ([3]; listed as (c)) | half-life (in words) (beta-adrenolytic action; qualitative statement)
7 | CCCC(=O)Nc1ccc(OCC(O)CNC(C)C)c(C(C)=O)c1 (centres unmarked) [Comparison Substance 1, Acebutolol, reference compound] | 9770 nM | present |  |  |  | 1.6 h | 27% |  |  | 
